In US9233995B2, “Quinazoline derivatives and quinazoline complex protein kinase inhibitor for inhibiting multiplication of tumor cells and preparation method thereof” (INSTITUTE OF CHEMISTRY, CHINESE ACADEMY OF SCIENCES, priority 2010, dated 2016):

How the values were obtained:
[1] = system: human breast cancer cell line (sensitive) MCF-7/S + EGF; assay: Cytotoxicity experiment under the condition of additional EGF, SRB method; type: cell-based; settings: MCF-7/S with additional EGF 100 ng/ml, 48 h, SRB; read-out: IC50 (umol/L) Breast cancer cell (sensitive) MCF-7/S + EGF
Experimental: Human breast cancer cell line (sensitive) MCF-7/S and human non-small cell lung cancer cell line A549 are cultured in HAM′S/F-12 medium (HyClone, USA) containing 10 wt % fetal bovine serum (FBS, Hyclone, USA), and 100 ng/ml epidermal growth factor (EGF, Sigma, USA) is added to this medium. Cells described above were purchased from Cell Resource Center, Shanghai Institute for Biological Science, CAS, they are placed in a CO2 incubator and used for the experiment 3-5 days later.
(§1) Wherein, for experiment on compound cytotoxicity assay by sulforhodamine B (SRB) method: Cells in the logarithmic growth phase are collected and inoculated at 96-well plates (6500 cells/well/100 ul, RPMI1640 containing 100 ng/ml of EGF). After incubation for 24 h, compounds at gradient concentrations (200, 100, 50, 25, 12.5, 6.25, 1 (μM/L)) are added. The same volume of RPMI1640 containing 100 ng/ml of EGF is used as control group of the experiment; the blank group is only culture medium without cell. Three parallel wells are set up for each concentration group. After incubation is continued for 48 h, the cell survival rate is measured by SRB method. 50 μl 10% trichloroacetic acid (TCA) pre-cooled (4° C.) is added to each well, it is fixed for 1 hour at 4° C., washed with water for five times, and completely dried, and then 100 μl of SRB solution (Sigma, USA) at concentration of 0.4% by weight is added, and staining is performed at 37° C. in the dark for 30 min. Wash with acetic acid at a concentration of 1% by weight for 4-5 times, dry in the air, add 200 μl of Tris solution (10 mM, pH 10.5), after sufficiently dissolved, the absorbance (absorption wavelength is 570 nm) is measured in microplate reader.
(§2) The growth inhibition rate (IR) is calculated according to the following formula: IR (%)=[1−(experiment group A value−blank group A value)/(control group A value−blank group A value)]×100%, and the IC50 value is calculated using Origin 6.0 software.

[2] = Stability (physicochemical properties, Table 1); settings: for Stability (photostability): light
[3] = Solubility (physicochemical properties, Table 1); settings: room temperature, atmospheric pressure
[4] = biological target: T1, EGFR (Epidermal Growth Factor Receptor) (Homo sapiens, UniProt P00533); assay: Enzyme-linked immunosorbent assay (ELISA), kinase inhibitory activity (phosphorylation of PTP1B(Tyr66) biotinylated peptide substrate); type: biochemical; settings: average of two independent parallel experiments
T1 construct: purchased CST
Source text: Protein kinase assay kit: PTP1B(Tyr66) Biotinylated Peptide from CST company is used as a substrate of kinase EGFR (Epidermal Growth Factor Receptor).

[5] = system: human breast cancer cell line (sensitive) MCF-7/S; assay: Cytotoxicity experiment, SRB method, tumor cell proliferation; type: cell-based; settings: 48 h, read-out: IC50 (umol/L) Breast cancer cell (sensitive) MCF-7/S
Experimental: (§3) Human breast cancer cell line (drug-resistant) MCF-7/A, human breast cancer cell line (sensitive) MCF-7/S, prostate cancer cell PC-3, keratinocyte Colo-16, human non-small cell lung cancer cell line A549 and etc. are cultured in RPMI1640 medium (Invitrogen, USA) containing 10 wt % fetal bovine serum (FBS, Hyclone, USA), and epidermal growth factor (EGF) at a concentration of 100 ng/ml is added to stimulate growth. After 2-3 days, cells in logarithmic growth phase are collected, and inoculated at 96 well plates (6500 cells/well/100 ul, RPMI1640 containing 100 ng/mL EGF) for 24 h, and then compound at gradient concentrations (200, 100, 50, 25, 12.5, 6.25, 1 μM/L) are added. The same volume of RPMI1640 containing 1 wt % of dimethyl sulfoxide (DMSO) is used as control group of the experiment; the blank group is only culture medium without cell. Three parallel wells are set up for each concentration group. After incubation is continued for 48 h, the cell survival rate is measured by SRB method. Results are shown in Table 2 and Table 3, respectively.
as §1, §2

[6] = system: human non-small cell lung cancer cell line A549; assay: as above; type: cell-based; settings: A549, 48 h, read-out: IC50 (μmol/L) Non-small cell lung cancer cell A549
Experimental: as §3, §1, §2

[7] = system: Human breast cancer cell line (drug-resistant) MCF-7/A; assay: as above; type: cell-based; settings: 48 h, read-out: IC50 (umol/L) Breast cancer cell (drug-resistant) MCF-7/A
Experimental: as §3, §1, §2

[8] = system: prostate cancer cell PC-3; assay: as above; type: cell-based; settings: PC-3, 48 h, SRB; read-out: IC50 (μmol/L) Prostate cancer cell PC-3
Experimental: as §3, §1, §2

keratinocyte Colo-16 = assay: as above; type: cell-based; settings: Colo-16, 48 h, SRB; read-out: IC50 (μmol/L) Keratinocyte Colo-16
Experimental: as §3, §1, §2

T1 sequence (P00533 25-1210): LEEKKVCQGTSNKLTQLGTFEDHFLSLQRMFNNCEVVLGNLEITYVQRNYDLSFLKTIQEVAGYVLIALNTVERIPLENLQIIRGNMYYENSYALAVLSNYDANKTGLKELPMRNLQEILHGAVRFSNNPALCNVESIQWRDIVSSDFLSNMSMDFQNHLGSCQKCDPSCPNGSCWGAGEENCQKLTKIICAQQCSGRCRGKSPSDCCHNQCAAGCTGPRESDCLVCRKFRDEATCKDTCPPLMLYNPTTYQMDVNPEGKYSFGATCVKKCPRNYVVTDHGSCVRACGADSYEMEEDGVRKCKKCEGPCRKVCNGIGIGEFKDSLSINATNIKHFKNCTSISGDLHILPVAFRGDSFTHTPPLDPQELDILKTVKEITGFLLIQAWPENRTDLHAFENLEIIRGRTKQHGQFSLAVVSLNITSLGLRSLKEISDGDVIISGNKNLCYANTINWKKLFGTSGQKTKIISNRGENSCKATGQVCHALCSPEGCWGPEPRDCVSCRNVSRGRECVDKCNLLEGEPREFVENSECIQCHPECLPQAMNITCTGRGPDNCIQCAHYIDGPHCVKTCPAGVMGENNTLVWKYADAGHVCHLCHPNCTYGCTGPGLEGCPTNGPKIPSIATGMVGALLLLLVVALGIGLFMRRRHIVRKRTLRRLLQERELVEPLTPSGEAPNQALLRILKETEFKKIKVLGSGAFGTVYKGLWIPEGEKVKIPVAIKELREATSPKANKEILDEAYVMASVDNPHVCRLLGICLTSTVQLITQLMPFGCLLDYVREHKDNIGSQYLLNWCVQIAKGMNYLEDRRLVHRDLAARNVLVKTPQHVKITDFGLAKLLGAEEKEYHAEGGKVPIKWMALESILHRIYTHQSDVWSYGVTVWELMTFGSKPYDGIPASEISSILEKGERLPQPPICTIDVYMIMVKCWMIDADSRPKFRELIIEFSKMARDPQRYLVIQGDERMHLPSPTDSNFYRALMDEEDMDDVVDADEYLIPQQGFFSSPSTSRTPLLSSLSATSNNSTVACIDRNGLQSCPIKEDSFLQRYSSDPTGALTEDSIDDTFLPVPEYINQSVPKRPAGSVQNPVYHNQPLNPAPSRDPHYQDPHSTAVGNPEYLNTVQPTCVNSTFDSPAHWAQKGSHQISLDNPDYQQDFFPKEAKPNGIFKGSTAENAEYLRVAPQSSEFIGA

Structure (SMILES)	IC50 [1] [µmol/L]	Stability (in air) [2]	Stability (photostability) [2]	Solubility in DMSO [3]	Solubility in methanol and ethanol [3]	Solubility in water [3]	IC50 [4] [µM]	IC50 [5] [µmol/L]	IC50 [6] [µmol/L]	IC50 [7] [µmol/L]	IC50 [8] [µmol/L]	IC50 (keratinocyte Colo-16) [µmol/L]
COc1cc2ncnc(Nc3ccc(F)c(Cl)c3)c2cc1OCC[N]1CC[NH][Ru+]1([Cl])[c]1cc(C(C)C)ccc1C.F[P-](F)(F)(F)(F)F (stereo not drawn) [ZW2001]	56.1 ± 2.66	Stable in air,	photostable	Highly soluble in DMSO	soluble in water, soluble in methanol	slightly	0.081	> 100	> 100	> 100	> 100	42.8 ± 2.46
COc1cc2ncnc(Nc3ccc(F)c(Cl)c3)c2cc1OCC[N]1CC[NH][Ru+]1([Cl])[c]1cccc(-c2ccccc2)c1.F[P-](F)(F)(F)(F)F (stereo not drawn) [ZW2003]	28.7 ± 8.75	Stable in air,	photostable	Highly soluble in DMSO	soluble in water, soluble in methanol	slightly	0.126	79.1 ± 11.6	> 100	> 100	81.3 ± 6.94	54.2 ± 4.98
COc1cc2ncnc(Nc3ccc(F)c(Cl)c3)c2cc1OCCC[N]1CC[NH][Ru+]1([Cl])[c]1cccc(-c2ccccc2)c1.F[P-](F)(F)(F)(F)F (stereo not drawn) [ZW2006]	21.7 ± 7.44	Stable in air,	photostable	Highly soluble in DMSO	soluble in water, soluble in methanol	slightly	0.0762	48.8 ± 7.82	> 100	> 100	43.8 ± 3.9	55.8 ± 1.55
